{
  "source": "paper PMC3966885",
  "about": "“F9 Fimbriae of Uropathogenic Escherichia coli Are Expressed at Low Temperature and Recognise Galβ1-3GlcNAc-Containing Glycans” (PLoS ONE, 2014)",
  "biological_target": "T1, F9 fimbriae (F9 adhesin) (Escherichia coli, UniProt A0A0H2V7F6)",
  "T1 construct": "gene ydeQ; whole F9 fimbriae (six-gene operon c1931-c1936, plasmid pF9, ara promoter) over-expressed on GFP-labelled E. coli K-12 MG1655fim (MS428); mature adhesin 280 aa, N-terminal lectin domain 160 aa",
  "T1 sequence (A0A0H2V7F6 entry or part of it)": "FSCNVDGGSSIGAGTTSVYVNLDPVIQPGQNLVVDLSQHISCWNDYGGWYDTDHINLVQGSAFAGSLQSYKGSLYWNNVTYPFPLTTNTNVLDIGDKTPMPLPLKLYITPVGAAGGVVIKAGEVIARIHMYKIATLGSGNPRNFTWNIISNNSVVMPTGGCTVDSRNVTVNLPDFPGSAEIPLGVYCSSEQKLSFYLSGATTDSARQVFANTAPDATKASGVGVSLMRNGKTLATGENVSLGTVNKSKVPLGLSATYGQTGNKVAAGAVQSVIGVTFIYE",
  "assay": "glycan array with whole GFP-labelled F9 over-expressing E. coli",
  "type": "cell-based",
  "details": "glycan printed on super epoxy slide; PBS with 2 mM MgCl2 and CaCl2, room temperature; also used free at 50 μM as competitor",
  "data": [
    {"smiles": "CC(=O)N[C@H]1[C@H](O[C@H]2[C@@H](O)[C@@H](CO)O[C@@H](O[C@H]3[C@H](O)[C@@H](O)C(O)O[C@@H]3CO)[C@@H]2O)O[C@H](CO)[C@@H](O)[C@@H]1O[C@@H]1O[C@H](CO)[C@H](O)[C@H](O)[C@H]1O", "note": "(stereo partly shown) [lacto-N-tetraose, Galβ1-3GlcNAcβ1-3Galβ1-4Glc]", "values": [
      {"measurement": "glycan array with whole GFP-labelled F9 over-expressing E. coli", "value": "Of the glycans that were bound by F9 fimbriae, lacto-N-tetraose displayed the highest affinity"}
    ]}
  ]
}
